In brackets after ≈: the same amount, converted by molar mass. Activity calls are given as the source filed them. The rule behind the calls is not given here.
Columns and labels:
Bacillus subtilis [1] = assay: Antibacterial activity against Bacillus subtilis MTCC 441 assessed as growth inhibition after 24 hr by tube dilution method; type: functional; details: MTCC 441, 24 h
Bacillus subtilis [2] = assay: Antibacterial activity against Bacillus subtilis MTCC 441 assessed as growth inhibition at 1000 ug/mL after 48 hr by agar diffusion method; type: functional; details: MTCC 441, 48 h, read-out: DIZ
Micrococcus luteus [3] = assay: Antibacterial activity against Micrococcus luteus MTCC 1538 assessed as growth inhibition at 100 ug/mL after 48 hr by agar diffusion method; type: functional
Aspergillus niger [4] = assay: Antifungal activity against Aspergillus niger MTCC 2546 assessed as growth inhibition at 500 ug/mL after 48 hr by agar diffusion method; type: functional; details: MTCC 2546, 48 h, read-out: DIZ
Micrococcus luteus [5] = assay: Antibacterial activity against Micrococcus luteus MTCC 1538 assessed as growth inhibition at 750 ug/mL after 48 hr by agar diffusion method; type: functional; details: MTCC 1538, 48 h, read-out: DIZ
Bacillus pumilus [6] = assay: Antibacterial activity against Bacillus pumilus MTCC 1456 assessed as growth inhibition at 1000 ug/mL after 48 hr by agar diffusion method; type: functional; details: MTCC 1456, 48 h, read-out: DIZ
Aspergillus niger [7] = assay: Antifungal activity against Aspergillus niger MTCC 2546 assessed as growth inhibition at 750 ug/mL after 48 hr by agar diffusion method; type: functional; details: MTCC 2546, 48 h, read-out: DIZ
Pseudomonas fluorescens [8] = assay: Antibacterial activity against Pseudomonas fluorescens MTCC 2421 assessed as growth inhibition at 750 ug/mL after 48 hr by agar diffusion method; type: functional; details: MTCC 2421, 48 h, read-out: DIZ
Aspergillus niger [9] = assay: Antifungal activity against Aspergillus niger MTCC 2546 assessed as growth inhibition at 100 ug/mL after 48 hr by agar diffusion method; type: functional, organism-based
Bacillus pumilus [10] = assay: Antibacterial activity against Bacillus pumilus MTCC 1456 assessed as growth inhibition at 250 ug/mL after 48 hr by agar diffusion method; type: functional; details: MTCC 1456, 48 h, read-out: DIZ
Aspergillus niger [11] = assay: Antifungal activity against Aspergillus niger MTCC 2546 assessed as growth inhibition after 24 hr by tube dilution method; type: functional; details: MTCC 2546, 24 h
Pseudomonas fluorescens [12] = assay: Antibacterial activity against Pseudomonas fluorescens MTCC 2421 assessed as growth inhibition at 1250 ug/mL after 48 hr by agar diffusion method; type: functional; details: MTCC 2421, 48 h, read-out: DIZ
Micrococcus luteus [13] = assay: Antibacterial activity against Micrococcus luteus MTCC 1538 assessed as growth inhibition at 1250 ug/mL after 48 hr by agar diffusion method; type: functional; details: MTCC 1538, 48 h, read-out: DIZ
Aspergillus niger [14] = assay: Antifungal activity against Aspergillus niger MTCC 2546 assessed as growth inhibition at 250 ug/mL after 48 hr by agar diffusion method; type: functional; details: MTCC 2546, 48 h, read-out: DIZ
Pseudomonas aeruginosa [15] = assay: Antibacterial activity against Pseudomonas aeruginosa MTCC 424 assessed as growth inhibition at 500 ug/mL after 48 hr by agar diffusion method; type: functional; details: MTCC 424, 48 h, read-out: DIZ
Penicillium chrysogenum [16] = assay: Antifungal activity against Penicillium chrysogenum MTCC 161 assessed as growth inhibition at 750 ug/mL after 48 hr by agar diffusion method; type: functional; details: MTCC 161, 48 h, read-out: DIZ
Escherichia coli [17] = assay: Antibacterial activity against Escherichia coli MTCC 1573 assessed as growth inhibition at 1000 ug/mL after 48 hr by agar diffusion method; type: functional; details: MTCC 1573, 48 h, read-out: DIZ
Escherichia coli [18] = assay: Antibacterial activity against Escherichia coli MTCC 1573 assessed as growth inhibition at 750 ug/mL after 48 hr by agar diffusion method; type: functional; details: MTCC 1573, 48 h, read-out: DIZ
Pseudomonas fluorescens [19] = assay: Antibacterial activity against Pseudomonas fluorescens MTCC 2421 assessed as growth inhibition at 1000 ug/mL after 48 hr by agar diffusion method; type: functional; details: MTCC 2421, 48 h, read-out: DIZ
Staphylococcus aureus [20] = assay: Antibacterial activity against Staphylococcus aureus MTCC 1430 assessed as growth inhibition after 24 hr by tube dilution method; type: functional; details: MTCC 1430, 24 h
Bacillus subtilis [21] = assay: Antibacterial activity against Bacillus subtilis MTCC 441 assessed as growth inhibition at 1250 ug/mL after 48 hr by agar diffusion method; type: functional; details: MTCC 441, 48 h, read-out: DIZ
Penicillium chrysogenum [22] = assay: Antifungal activity against Penicillium chrysogenum MTCC 161 assessed as growth inhibition after 24 hr by tube dilution method; type: functional; details: MTCC 161, 24 h
Escherichia coli [23] = assay: Antibacterial activity against Escherichia coli MTCC 1573 assessed as growth inhibition after 24 hr by tube dilution method; type: functional; details: MTCC 1573, 24 h
Pseudomonas aeruginosa [24] = assay: Antibacterial activity against Pseudomonas aeruginosa MTCC 424 assessed as growth inhibition at 250 ug/mL after 48 hr by agar diffusion method; type: functional; details: MTCC 424, 48 h, read-out: DIZ
Bacillus subtilis [25] = assay: Antibacterial activity against Bacillus subtilis MTCC 441 assessed as growth inhibition at 500 ug/mL after 48 hr by agar diffusion method; type: functional; details: MTCC 441, 48 h, read-out: DIZ
Bacillus subtilis [26] = assay: Antibacterial activity against Bacillus subtilis MTCC 441 assessed as growth inhibition at 250 ug/mL after 48 hr by agar diffusion method; type: functional; details: MTCC 441, 48 h, read-out: DIZ
Escherichia coli [27] = assay: Antibacterial activity against Escherichia coli MTCC 1573 assessed as growth inhibition at 500 ug/mL after 48 hr by agar diffusion method; type: functional; details: MTCC 1573, 48 h, read-out: DIZ
Pseudomonas fluorescens [28] = assay: Antibacterial activity against Pseudomonas fluorescens MTCC 2421 assessed as growth inhibition at 100 ug/mL after 48 hr by agar diffusion method; type: functional; details: MTCC 2421, 48 h, read-out: DIZ
Penicillium chrysogenum [29] = assay: Antifungal activity against Penicillium chrysogenum MTCC 161 assessed as growth inhibition at 500 ug/mL after 48 hr by agar diffusion method; type: functional; details: MTCC 161, 48 h, read-out: DIZ
Pseudomonas aeruginosa [30] = assay: Antibacterial activity against Pseudomonas aeruginosa MTCC 424 assessed as growth inhibition at 100 ug/mL after 48 hr by agar diffusion method; type: functional; details: MTCC 424, 48 h, read-out: DIZ
Penicillium chrysogenum [31] = assay: Antifungal activity against Penicillium chrysogenum MTCC 161 assessed as growth inhibition at 1250 ug/mL after 48 hr by agar diffusion method; type: functional; details: MTCC 161, 48 h, read-out: DIZ
Bacillus pumilus [32] = assay: Antibacterial activity against Bacillus pumilus MTCC 1456 assessed as growth inhibition at 100 ug/mL after 48 hr by agar diffusion method; type: functional; details: MTCC 1456, 48 h, read-out: DIZ
Penicillium chrysogenum [33] = assay: Antifungal activity against Penicillium chrysogenum MTCC 161 assessed as growth inhibition at 250 ug/mL after 48 hr by agar diffusion method; type: functional; details: MTCC 161, 48 h, read-out: DIZ
Staphylococcus aureus [34] = assay: Antibacterial activity against Staphylococcus aureus MTCC 1430 assessed as growth inhibition at 1000 ug/mL after 48 hr by agar diffusion method; type: functional; details: MTCC 1430, 48 h, read-out: DIZ
Escherichia coli [35] = assay: Antibacterial activity against Escherichia coli MTCC 1573 assessed as growth inhibition at 1250 ug/mL after 48 hr by agar diffusion method; type: functional; details: MTCC 1573, 48 h, read-out: DIZ
Escherichia coli [36] = assay: Antibacterial activity against Escherichia coli MTCC 1573 assessed as growth inhibition at 250 ug/mL after 48 hr by agar diffusion method; type: functional; details: MTCC 1573, 48 h, read-out: DIZ
Pseudomonas aeruginosa [37] = assay: Antibacterial activity against Pseudomonas aeruginosa MTCC 424 assessed as growth inhibition at 750 ug/mL after 48 hr by agar diffusion method; type: functional; details: MTCC 424, 48 h, read-out: DIZ
Penicillium chrysogenum [38] = assay: Antifungal activity against Penicillium chrysogenum MTCC 161 assessed as growth inhibition at 100 ug/mL after 48 hr by agar diffusion method; type: functional, organism-based
Aspergillus niger [39] = assay: Antifungal activity against Aspergillus niger MTCC 2546 assessed as growth inhibition at 1250 ug/mL after 48 hr by agar diffusion method; type: functional; details: MTCC 2546, 48 h, read-out: DIZ

What does the source list for `O=C1CSC(c2ccccn2)N1c1nnc2c3cc(Cl)ccc3nc-2s1` (centres undefined)?
MIC (Bacillus subtilis [1]): 150 µg/mL (≈ 375 µM); zone of inhibition at 1000 µg/mL (Bacillus subtilis [2]): 19 mm; growth inhibition (GI) (Micrococcus luteus [3]): inactive; zone of inhibition at 500 µg/mL (Aspergillus niger [4]): 12 mm; zone of inhibition at 750 µg/mL (Micrococcus luteus [5]): 12 mm; zone of inhibition at 1000 µg/mL (Bacillus pumilus [6]): 20 mm; zone of inhibition at 750 µg/mL (Aspergillus niger [7]): 15 mm; zone of inhibition at 750 µg/mL (Pseudomonas fluorescens [8]): 15 mm; growth inhibition (GI) (Aspergillus niger [9]): inactive; zone of inhibition at 250 µg/mL (Bacillus pumilus [10]): 13 mm; MIC (Aspergillus niger [11]): 200 µg/mL (≈ 500 µM); zone of inhibition at 1250 µg/mL (Pseudomonas fluorescens [12]): 21 mm; zone of inhibition at 1250 µg/mL (Micrococcus luteus [13]): 19 mm; zone of inhibition at 250 µg/mL (Aspergillus niger [14]): 9 mm; zone of inhibition at 500 µg/mL (Pseudomonas aeruginosa [15]): 13 mm; zone of inhibition at 750 µg/mL (Penicillium chrysogenum [16]): 15 mm; zone of inhibition at 1000 µg/mL (Escherichia coli [17]): 20 mm; zone of inhibition at 750 µg/mL (Escherichia coli [18]): 15 mm; zone of inhibition at 1000 µg/mL (Pseudomonas fluorescens [19]): 17 mm; MIC (Staphylococcus aureus [20]): 250 µg/mL (≈ 625 µM); zone of inhibition at 1250 µg/mL (Bacillus subtilis [21]): 22 mm; MIC (Penicillium chrysogenum [22]): 200 µg/mL (≈ 500 µM); MIC (Escherichia coli [23]): 150 µg/mL (≈ 375 µM); zone of inhibition at 250 µg/mL (Pseudomonas aeruginosa [24]): 10 mm; zone of inhibition at 500 µg/mL (Bacillus subtilis [25]): 9 mm; zone of inhibition at 250 µg/mL (Bacillus subtilis [26]): 7 mm; zone of inhibition at 500 µg/mL (Escherichia coli [27]): 12 mm; zone of inhibition at 100 µg/mL (Pseudomonas fluorescens [28]): 7 mm; zone of inhibition at 500 µg/mL (Penicillium chrysogenum [29]): 12 mm; zone of inhibition at 100 µg/mL (Pseudomonas aeruginosa [30]): 7 mm; zone of inhibition at 1250 µg/mL (Penicillium chrysogenum [31]): 20 mm; zone of inhibition at 100 µg/mL (Bacillus pumilus [32]): 10 mm; zone of inhibition at 250 µg/mL (Penicillium chrysogenum [33]): 9 mm; zone of inhibition at 1000 µg/mL (Staphylococcus aureus [34]): 13 mm; zone of inhibition at 1250 µg/mL (Escherichia coli [35]): 23 mm; zone of inhibition at 250 µg/mL (Escherichia coli [36]): 11 mm; zone of inhibition at 750 µg/mL (Pseudomonas aeruginosa [37]): 15 mm; growth inhibition (GI) (Penicillium chrysogenum [38]): inactive; zone of inhibition at 1250 µg/mL (Aspergillus niger [39]): 20 mm

Reference: ChEMBL document CHEMBL3046001, “4-Thiazolidinone and 1-thia-3,4,9-triaza fluorene conjugates: synthesis, characterization and antimicrobial screening” (2013)
